# Measured values as given in patent US9850283B2, “Macrocyclic inhibitors of the PD-1/PD-L1 and CD80(B7-1)/PD-L1 protein/protein interactions” (BRISTOL-MYERS SQUIBB COMPANY, priority 2013, dated 2017).
# Where two headings read alike, the source gives them in different places. Starred links: 1 amine or outer side, 2 acyl side, 3 side chain; linkers in the order of their positions; H or OH if unused. Positions of bridges follow the written chain, without caps; N, C: chain ends. Non-standard residues stand in square brackets, D forms with d. Residues, ends and D or L forms follow the SMILES beside them. ξ: configuration not given here. X19 = CCCOc1cccc(-c2[nH]c3ccccc3c2C[C@H](N[*:1])C(=O)[*:2])c1; Phe(3,4,5-F3) = N[C@@H](Cc1cc(F)c(F)c(F)c1)C(=O)O; Phe(3-CF3) = N[C@@H](Cc1cccc(C(F)(F)F)c1)C(=O)O; Phe(4-CF3) = N[C@@H](Cc1ccc(C(F)(F)F)cc1)C(=O)O; Phe(4-CH2NH2) = NCc1ccc(C[C@H](N)C(=O)O)cc1; Ala(2-furyl) = N[C@@H](Cc1ccco1)C(=O)O; Phe(3-F) = N[C@@H](Cc1cccc(F)c1)C(=O)O; Pro(4R-NH2) = N[C@H]1CN[C@H](C(=O)O)C1; Hyp = O=C(O)[C@@H]1C[C@@H](O)CN1; NMeF = CN[C@@H](Cc1ccccc1)C(=O)O; NMeNle = CCCC[C@H](NC)C(=O)O; Pen = CC(C)(S)[C@H](N)C(=O)O; hSer = N[C@@H](CCO)C(=O)O; ξR = N=C(N)NCCCC(N)C(=O)O; NMeA = CN[C@@H](C)C(=O)O; Orn = NCCC[C@H](N)C(=O)O; Dab = NCC[C@H](N)C(=O)O; dAze = O=C(O)[C@H]1CCN1; Dap = NC[C@H](N)C(=O)O; ξC = NC(CS)C(=O)O; Sar = CNCC(=O)O
# Assays:
# Human PD-L1/PD-1 = target: T1, Human PD-L1/PD-1 (Homo sapiens, UniProt Q9NZQ7); test: HTRF PD-1-Ig/PD-L1-His binding assay (human PD-L1); settings: cluster symbol; read-out: HTRF IC50 cluster
# T1 construct: made in house; host or cells: HEK293T
# T1 sequence (Q9NZQ7 with tags, fused parts or gaps): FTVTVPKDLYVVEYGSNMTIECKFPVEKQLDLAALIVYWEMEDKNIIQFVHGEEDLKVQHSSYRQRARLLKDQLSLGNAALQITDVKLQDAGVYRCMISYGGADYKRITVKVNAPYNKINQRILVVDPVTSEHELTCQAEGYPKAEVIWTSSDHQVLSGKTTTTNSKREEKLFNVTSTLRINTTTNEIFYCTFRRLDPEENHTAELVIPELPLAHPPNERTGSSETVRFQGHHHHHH
# Method in brief: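 Soluble PD-1-Ig binding to PD-L1-His measured by HTRF in dPBS with 0.1% BSA and 0.05% Tween-20. Detection used europium cryptate anti-Ig antibody (1 nM final) and APC anti-His antibody (20 nM final) added on top of the binding reaction.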
# [1] = target: T2, LK35.2-hPD-L1 cells / PE-labeled PD-1-Ig (Homo sapiens, UniProt Q9NZQ7); test: LK35.2-hPD-L1 cell binding high-content screening assay; assay type: cell-based; settings: cluster symbol, read-out: CBA IC50 cluster
# T2 construct: expressed in transfected cells; host or cells: LK35.2 mouse B cell line
# T2 sequence (Q9NZQ7 19-290): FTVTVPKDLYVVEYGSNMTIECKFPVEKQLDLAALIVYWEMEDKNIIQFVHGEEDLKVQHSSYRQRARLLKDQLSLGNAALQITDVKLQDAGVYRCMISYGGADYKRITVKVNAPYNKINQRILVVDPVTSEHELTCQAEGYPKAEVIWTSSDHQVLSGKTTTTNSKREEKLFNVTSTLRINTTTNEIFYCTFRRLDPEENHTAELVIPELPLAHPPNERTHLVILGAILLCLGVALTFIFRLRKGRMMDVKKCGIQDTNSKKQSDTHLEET
# Method in brief: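 Binding of PE-conjugated human PD-1-Ig (1 nM final) to human PD-L1 stably expressed on a mouse B-cell line (LK35.2) was measured by high-content imaging after washes. Compound and labeled PD-1-Ig were co-incubated 1 h at 37 °C with cells in RPMI/10% FCS.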
# [2] = cell line of CBA not given (LK35.2-hPD-L1 or 293T-hPD-L1)
# [3] = cell binding assay, cell line not given
SMILES,IC50 (Human PD-L1/PD-1) [nM],"IC50 [1, 2] [nM]","IC50 [1, 3] [nM]"
CCCC[C@H]1C(=O)N(C)[C@@H](CCCC)C(=O)N[C@@H](C)C(=O)N[C@H](C(=O)NCC(N)=O)CSCC(=O)N[C@@H](Cc2ccc(O)cc2)C(=O)N(C)[C@@H](C)C(=O)N[C@@H](CCCN)C(=O)N2CCC[C@H]2C(=O)N[C@@H](Cc2cnc[nH]2)C(=O)N[C@@H](CCC(=O)O)C(=O)N2C[C@H](O)C[C@H]2C(=O)N[C@@H](Cc2c[nH]c3ccccc23)C(=O)N[C@@H](CO)C(=O)N[C@@H](Cc2c[nH]c3ccccc23)C(=O)N1C [Example 1179] ({CH2CO}-Y[NMeA][Orn]PHE[Hyp]WSW[NMeNle][NMeNle]ACG-NH2; thioether N-14),0.385 to 6.74,4.78 to 72.9,–
"CCCC[C@H]1C(=O)N2CCC[C@@H]2C(=O)N[C@@H](CCCCN)C(=O)N[C@@H](C(C)C)C(=O)N(C)[C@@H](Cc2ccccc2)C(=O)N[C@@H](CCC(=O)O)C(=O)N2CCC[C@@H]2C(=O)N[C@@H](Cc2c[nH]c3ccccc23)C(=O)N[C@@H](Cc2ccc(O)cc2)C(=O)N[C@@H](CC(C)C)C(=O)N[C@H](C(=O)NCC(N)=O)CSCC(=O)N[C@@H](Cc2ccccc2)C(=O)N(C)[C@@H](Cc2ccccc2)C(=O)N1C [Example 3190] (HELM PEPTIDE1{[O=C(C[*:3])[*:2]].F.[meF].[CCCC[C@@H](C(=O)[*:2])N(C)[*:1]].[dP].K.V.[meF].E.[dP].W.Y.L.C.G.[am]}$PEPTIDE1,PEPTIDE1,1:R3-14:R3$$$V2.0)",0.385 to 6.74,0.158 to 4.71,–
CCCC[C@H]1C(=O)N(C)[C@@H](CCCC)C(=O)N[C@@H](CCCNC(=N)N)C(=O)N[C@H](C(=O)NCC(N)=O)CSCC(=O)N[C@@H](Cc2ccc(C(F)(F)F)cc2)C(=O)N(C)[C@@H](C)C(=O)N[C@@H](CC(N)=O)C(=O)N2CCC[C@H]2C(=O)N[C@@H](CN)C(=O)N[C@@H](CC(C)C)C(=O)N2C[C@H](O)C[C@H]2C(=O)N[C@@H](Cc2c[nH]c3ccccc23)C(=O)N[C@@H](CO)C(=O)N[C@@H](Cc2c[nH]c3ccccc23)C(=O)N1C [Example 7030] ({CH2CO}-[Phe(4-CF3)][NMeA]NP[Dap]L[Hyp]WSW[NMeNle][NMeNle]RCG-NH2; thioether N-14),0.385 to 6.74,–,4.78 to 72.9
CCCC[C@H]1C(=O)N(C)[C@@H](CCCC)C(=O)N[C@@H](CCCNC(=N)N)C(=O)N[C@H](C(=O)NCC(N)=O)C(C)(C)SCC(=O)N[C@@H](Cc2ccccc2)C(=O)N(C)[C@@H](C)C(=O)N[C@@H](CC(N)=O)C(=O)N2CCC[C@H]2C(=O)N[C@@H](Cc2cnc[nH]2)C(=O)N[C@@H](CC(C)C)C(=O)N(C)CC(=O)N[C@@H](Cc2c[nH]c3ccccc23)C(=O)N[C@@H](CO)C(=O)N[C@@H](Cc2c[nH]c3ccccc23)C(=O)N1C [Example 1083] ({CH2CO}-F[NMeA]NPHL[Sar]WSW[NMeNle][NMeNle]R[Pen]G-NH2; thioether N-14),0.385 to 6.74,4.78 to 72.9,–
CCCC[C@H]1C(=O)N(C)[C@@H](CCCC)C(=O)N[C@@H](CCCNC(=N)N)C(=O)N[C@H](C(=O)NCC(N)=O)CSCC(=O)N[C@@H](Cc2ccc(O)cc2)C(=O)N(C)[C@@H](C)C(=O)N[C@@H](CCN)C(=O)N2CCC[C@H]2C(=O)N[C@@H](Cc2c[nH]cn2)C(=O)N[C@@H](CC(C)C)C(=O)N2C[C@H](O)C[C@H]2C(=O)N[C@@H](Cc2c[nH]c3ccccc23)C(=O)N[C@@H](CO)C(=O)N[C@@H](Cc2c[nH]c3ccccc23)C(=O)N1C [Example 5094] ({CH2CO}-Y[NMeA][Dab]PHL[Hyp]WSW[NMeNle][NMeNle]RCG-NH2; thioether N-14),0.385 to 6.74,–,4.78 to 72.9
CCCC[C@H]1C(=O)N(C)[C@@H](CCCC)C(=O)N[C@@H](CCCNC(=N)N)C(=O)N[C@H](C(=O)NCC(N)=O)CSCC(=O)N[C@@H](Cc2ccc(O)cc2)C(=O)N(C)[C@@H](C)C(=O)N[C@@H](CC(N)=O)C(=O)N2CCC[C@H]2C(=O)N[C@@H](Cc2cnc[nH]2)C(=O)N[C@@H](CCC(=O)O)C(=O)N2C[C@H](O)C[C@H]2C(=O)N[C@@H](Cc2c[nH]c3ccccc23)C(=O)N[C@@H](CO)C(=O)N[C@@H](Cc2c[nH]c3ccccc23)C(=O)N1C [Example 1159] ({CH2CO}-Y[NMeA]NPHE[Hyp]WSW[NMeNle][NMeNle]RCG-NH2; thioether N-14),6.76 to 30.3,0.158 to 4.71,–
"CCCC[C@H]1C(=O)N(C)CC(=O)N[C@@H](CC(=O)O)C(=O)N[C@@H](C(C)C)C(=O)N(C)[C@@H](Cc2ccccc2)C(=O)N[C@@H](Cc2ccc(O)cc2)C(=O)N(C)CC(=O)N[C@@H](Cc2c[nH]c3ccccc23)C(=O)N[C@H](C(=O)NCC(N)=O)CSCC(=O)N[C@@H](Cc2ccccc2)C(=O)N(C)[C@@H](Cc2ccccc2)C(=O)N1C [Example 3055] (HELM PEPTIDE1{[O=C(C[*:3])[*:2]].F.[meF].[CCCC[C@@H](C(=O)[*:2])N(C)[*:1]].[Sar].D.V.[meF].Y.[Sar].W.C.G.[am]}$PEPTIDE1,PEPTIDE1,1:R3-12:R3$$$V2.0)",> 30.5,> 74.3,–
CCCC[C@H]1C(=O)N(C)[C@@H](CCCC)C(=O)N[C@@H](CCCNC(=N)N)C(=O)N[C@H](C(=O)NCC(N)=O)CSCC(=O)N[C@@H](Cc2ccco2)C(=O)N(C)[C@@H](C)C(=O)N[C@@H](CC(N)=O)C(=O)N2CCC[C@H]2C(=O)N[C@@H](Cc2cnc[nH]2)C(=O)N[C@@H](CC(C)C)C(=O)N(C)CC(=O)N[C@@H](Cc2c[nH]c3ccccc23)C(=O)N[C@@H](CO)C(=O)N[C@@H](Cc2c[nH]c3ccccc23)C(=O)N1C [Example 1099] ({CH2CO}-[Ala(2-furyl)][NMeA]NPHL[Sar]WSW[NMeNle][NMeNle]RCG-NH2; thioether N-14),> 30.5,> 74.3,–
CCCC[C@H]1C(=O)N(C)[C@@H](CCCC)C(=O)N[C@@H](CCCNC(=N)N)C(=O)N[C@H](C(=O)NCC(N)=O)CSCC(=O)N[C@@H](Cc2cccc(C(F)(F)F)c2)C(=O)N(C)[C@@H](C)C(=O)N[C@@H](CC(N)=O)C(=O)N2CCC[C@H]2C(=O)N[C@@H](Cc2cnc[nH]2)C(=O)N[C@@H](CC(C)C)C(=O)N2C[C@H](O)C[C@H]2C(=O)N[C@@H](Cc2c[nH]c3ccccc23)C(=O)N[C@@H](CO)C(=O)N[C@@H](Cc2c[nH]c3ccccc23)C(=O)N1C [Example 7056] ({CH2CO}-[Phe(3-CF3)][NMeA]NPHL[Hyp]WSW[NMeNle][NMeNle]RCG-NH2; thioether N-14),6.76 to 30.3,–,> 74.3
CCCC[C@H]1C(=O)N(C)[C@@H](CCCC)C(=O)NC(CCCNC(=N)N)C(=O)N[C@H](C(=O)NCC(N)=O)CSCC(=O)N[C@@H](Cc2ccc(O)cc2)C(=O)N(C)[C@@H](C)C(=O)N[C@@H](CC(N)=O)C(=O)N2CCC[C@H]2C(=O)N[C@@H](CN)C(=O)N[C@@H](CC(C)C)C(=O)N2C[C@H](O)C[C@H]2C(=O)N[C@@H](Cc2c[nH]c3ccccc23)C(=O)N[C@@H](CO)C(=O)N[C@@H](Cc2c(-c3cccc(OCCC)c3)[nH]c3ccccc23)C(=O)N1C (some centres unmarked) [Example 7004] ({CH2CO}-Y[NMeA]NP[Dap]L[Hyp]WS[X19][NMeNle][NMeNle][ξR]CG-NH2; thioether N-14),0.385 to 6.74,–,4.78 to 72.9
"CCCC[C@H]1C(=O)N2CCC[C@@H]2C(=O)N2C[C@H](N)C[C@H]2C(=O)N[C@@H](C(C)C)C(=O)N(C)[C@@H](Cc2ccccc2)C(=O)N[C@@H](Cc2ccc(O)cc2)C(=O)N2CC[C@@H]2C(=O)N[C@@H](Cc2c[nH]c3ccccc23)C(=O)N[C@@H](Cc2ccc(O)cc2)C(=O)N[C@@H](CC(C)C)C(=O)N[C@H](C(=O)NCC(N)=O)CSCC(=O)N[C@@H](Cc2cc(F)c(F)c(F)c2)C(=O)N(C)[C@@H](Cc2ccccc2)C(=O)N1C [Example 3192] ({CH2CO}-[Phe(3,4,5-F3)][NMeF][NMeNle][dP][Pro(4R-NH2)]V[NMeF]Y[dAze]WYLCG-NH2; thioether N-13)",0.385 to 6.74,0.158 to 4.71,–
CCCC[C@H]1C(=O)N(C)CC(=O)N[C@@H](CC(=O)O)C(=O)N[C@@H](C(C)C)C(=O)N(C)[C@@H](Cc2ccccc2)C(=O)N[C@@H](Cc2ccc(CN)cc2)C(=O)N(C)CC(=O)N[C@@H](Cc2c[nH]c3ccccc23)C(=O)N[C@@H](Cc2ccc(O)cc2)C(=O)N[C@@H](CC(C)C)C(=O)N[C@H](C(=O)NCC(N)=O)CSCC(=O)N[C@@H](Cc2cccc(F)c2)C(=O)N(C)[C@@H](Cc2ccccc2)C(=O)N1C [Example 3124] ({CH2CO}-[Phe(3-F)][NMeF][NMeNle][Sar]DV[NMeF][Phe(4-CH2NH2)][Sar]WYLCG-NH2; thioether N-13),6.76 to 30.3,0.158 to 4.71,–
CCCC[C@H]1C(=O)N(C)[C@@H](CCCC)C(=O)N[C@@H](CCCNC(=N)N)C(=O)NC(C(=O)NCC(N)=O)CSCC(=O)N[C@@H](Cc2ccc(O)cc2)C(=O)N(C)[C@@H](C)C(=O)N[C@@H](CC(N)=O)C(=O)N2CCC[C@H]2C(=O)N[C@@H](Cc2cnc[nH]2)C(=O)N[C@@H](CC(C)C)C(=O)N2C[C@H](O)C[C@H]2C(=O)N[C@@H](Cc2c[nH]c3ccccc23)C(=O)N[C@@H](CCO)C(=O)N[C@@H](Cc2c[nH]c3ccccc23)C(=O)N1C (some centres unmarked) [Example 9049] ({CH2CO}-Y[NMeA]NPHL[Hyp]W[hSer]W[NMeNle][NMeNle]R[ξC]G-NH2; thioether N-14),0.385 to 6.74,–,0.158 to 4.71
